This note sets out measurements from patent US20240294498A1, “FACTOR XIIA INHIBITORS” (Lunac Therapeutics Ltd, priority 2021, published 2024).

Holding throughout (assay type): biochemical
One assay deals with T1, FXIIa (Homo sapiens, UniProt P00748).
T1 construct: FXIIa alpha
T1 sequence (P00748 373-615 limits assumed): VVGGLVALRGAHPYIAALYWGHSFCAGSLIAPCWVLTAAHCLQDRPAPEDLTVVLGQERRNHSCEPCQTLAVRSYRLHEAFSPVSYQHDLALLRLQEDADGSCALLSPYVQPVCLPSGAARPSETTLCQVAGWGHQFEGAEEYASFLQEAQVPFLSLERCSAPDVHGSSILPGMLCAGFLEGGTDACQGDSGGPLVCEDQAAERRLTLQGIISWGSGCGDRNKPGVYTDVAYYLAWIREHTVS
T1 sequence (P00748 20-372 partner limits assumed): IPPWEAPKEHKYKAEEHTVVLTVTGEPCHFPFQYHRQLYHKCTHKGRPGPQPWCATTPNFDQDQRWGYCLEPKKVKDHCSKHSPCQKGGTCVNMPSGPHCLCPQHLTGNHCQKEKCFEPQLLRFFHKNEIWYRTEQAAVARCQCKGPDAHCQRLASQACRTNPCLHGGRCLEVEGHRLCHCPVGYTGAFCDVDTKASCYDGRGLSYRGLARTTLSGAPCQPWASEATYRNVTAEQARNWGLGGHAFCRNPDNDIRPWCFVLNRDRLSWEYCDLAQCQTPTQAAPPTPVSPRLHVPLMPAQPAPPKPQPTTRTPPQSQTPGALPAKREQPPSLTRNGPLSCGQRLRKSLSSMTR
In words: Determination of Factor XIIa inhibition (chromogenic substrate S-2302). As to conditions: human FXIIa alpha, Ki category. Put shortly: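 Compound preincubated with 10 nM FXIIa for 10 min at 37° C in 50 mM Tris, 137 mM NaCl, pH 7.4, 5% DMSO, top concentration 500 μM; S-2302 added at Km. pNA release followed at 405 nm for 3 h; IC50 from initial rates, converted to Ki via Ki = IC50/(1+[S]/Km).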

A further assay deals with FXa (Homo sapiens, UniProt P00742). Nature of the assay: Determination of selectivity: FXa inhibition (chromogenic substrate S2765). As to conditions: fold selectivity for FXIIa over FXa (human); category. The method, boiled down: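 FXa (5 nM) preincubated with increasing compound (top 500 μM) for 10 mins at 37° C in 50 mM Tris, 137 mM NaCl pH 7.4, 5% DMSO, then S2765 added at its KM. Absorbance at 405 nm followed kinetically for 3 hours; IC50 from initial rates, converted to Ki by Cheng-Prusoff.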
Chain of FXa (P00742 235-488 limits assumed): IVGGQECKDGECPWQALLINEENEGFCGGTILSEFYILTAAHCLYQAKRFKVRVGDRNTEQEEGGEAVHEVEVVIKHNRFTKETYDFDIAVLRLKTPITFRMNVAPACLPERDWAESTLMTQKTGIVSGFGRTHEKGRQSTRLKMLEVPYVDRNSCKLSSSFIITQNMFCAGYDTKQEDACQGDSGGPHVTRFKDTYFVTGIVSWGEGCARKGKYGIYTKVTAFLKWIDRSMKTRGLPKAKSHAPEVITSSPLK
Chain of FXa (P00742 41-179 partner limits assumed): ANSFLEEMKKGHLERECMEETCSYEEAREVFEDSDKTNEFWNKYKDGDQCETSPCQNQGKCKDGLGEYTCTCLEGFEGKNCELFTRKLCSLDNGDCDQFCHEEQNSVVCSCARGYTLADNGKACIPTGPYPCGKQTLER

In a further assay the target is T2, thrombin (Homo sapiens, UniProt P00734).
T2 construct: FXa (5 nM) and thrombin (5 nM)
In words: Determination of selectivity: thrombin inhibition (chromogenic substrate GPR). The note with it: fold selectivity for FXIIa over thrombin (human); category. The method, boiled down: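 Thrombin (5 nM) preincubated with increasing compound concentrations (top 500 μM, 5% DMSO) 10 min at 37 °C in 50 mM Tris, 137 mM NaCl pH 7.4, then GPR chromogenic substrate at its KM. pNA release read kinetically at 405 nm for 3 h at 37 °C. IC50 from initial rates, converted to Ki via Cheng–Prusoff.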

For the molecule `Cc1ccc(C[C@@H]2C[C@@H](C(=O)NCc3ccc4c(cnn4C)c3)N(C(=O)[C@@H]3NCCC[C@@H]3C(=O)N(C)C3CCN(C)CC3)C2)cc1` [Example M06061, (2R,3S)-N-methyl-2-((2S,4R)-2-(((1-methyl-1H-indazol-5-yl)methyl)carbamoyl)-4-(4-methylbenzyl)pyrrolidine-1-carbonyl)-N-(1-methylpiperidin-4-yl)piperidine-3-carboxamide], the Ki on FXIIa was < 200 nM. In addition, the “FXa (human)/FXIIa alpha (human)” value at FXa is listed as “∘∘∘”. For the same molecule, on thrombin, the “Thrombin (human)/FXIIa alpha (human)” value is on record as “+++ (fold selectivity values greater than 100)”.

On FXIIa, `Cc1ccc(C[C@@H]2C[C@@H](C(=O)NCc3ccc4c(cnn4C)c3)N(C(=O)[C@@H]3NCCC[C@@H]3C(=O)N3CCC4(CC3)CC4)C2)cc1` [Example M05775, (2S,4R)-1-((2R,3S)-3-(6-azaspiro[2.5]octane-6-carbonyl)piperidine-2-carbonyl)-N-((1-methyl-1H-indazol-5-yl)methyl)-4-(4-methylbenzyl)pyrrolidine-2-carboxamide] came in with a Ki of 800 to 5000 nM. For the same molecule, the “FXa (human)/FXIIa alpha (human)” value at FXa was “∘∘∘”. The “Thrombin (human)/FXIIa alpha (human)” value at thrombin is listed as “++ (a fold selectivity value of 10 to 100)”.

Turning to `Cc1ccc(C[C@@H]2C[C@@H](C(=O)NCc3ccc4c(cnn4C)c3)N(C(=O)[C@@H]3NCCC[C@@H]3C(=O)N(C)C3CCN(C)C3)C2)cc1` (stereo partly drawn) [Example M06034, (2R,3S)-N-methyl-2-((2S,4R)-2-(((1-methyl-1H-indazol-5-yl)methyl)carbamoyl)-4-(4-methylbenzyl)pyrrolidine-1-carbonyl)-N-(1-methylpyrrolidin-3-yl)piperidine-3-carboxamide], at FXIIa, the Ki is < 200 nM. On FXa, the “FXa (human)/FXIIa alpha (human)” value was “∘∘∘”. Besides, at thrombin, the “Thrombin (human)/FXIIa alpha (human)” value is “+++ (fold selectivity values greater than 100)”.

Turning to `COc1ccc(C[C@@H]2C[C@@H](C(=O)NCc3cc4cnccc4[nH]3)N(C(=O)[C@@H]3NCCC[C@@H]3C(=O)N3CCCC3(C)C)C2)cc1` [Example M00467], the Ki on FXIIa was < 200 nM. In addition, the “FXa (human)/FXIIa alpha (human)” value on FXa was “∘∘”. The “Thrombin (human)/FXIIa alpha (human)” value at thrombin is “+ (fold selectivity values less than 10 (e.g. a fold selectivity value of less than 10 and greater than 1))”.

Take `Cn1nnc2cc(CNC(=O)[C@@H]3C[C@@H](Cc4ccc(C5CC5)cc4)CN3C(=O)[C@@H]3NCCC[C@@H]3C(=O)N3CCCC3)ccc21` [Example M05934, (2S,4R)-4-(4-cyclopropylbenzyl)-N-((1-methyl-1H-benzo[d][1,2,3]triazol-5-yl)methyl)-1-((2R,3S)-3-(pyrrolidine-1-carbonyl)piperidine-2-carbonyl)pyrrolidine-2-carboxamide]: at FXIIa, the Ki is < 200 nM. Besides, on FXa, the “FXa (human)/FXIIa alpha (human)” value is “∘∘∘”. Also, on thrombin, the “Thrombin (human)/FXIIa alpha (human)” value is listed as “+++ (fold selectivity values greater than 100)”.

On to `Cc1nnc2cc(CNC(=O)[C@@H]3C[C@@H](Cc4ccc(C5CC5)cc4)CN3C(=O)[C@@H]3NCCC[C@@H]3C(=O)N3CCCC3)ccn12` [Example M06006, (2S,4R)-4-(4-cyclopropylbenzyl)-N-((3-methyl-[1,2,4]triazolo[4,3-a]pyridin-7-yl)methyl)-1-((2R,3S)-3-(pyrrolidine-1-carbonyl)piperidine-2-carbonyl)pyrrolidine-2-carboxamide], for which, on FXIIa, the Ki was in the range of 200 to 800 nM. Moreover, on FXa, the “FXa (human)/FXIIa alpha (human)” value was “∘∘∘”. Moreover, the “Thrombin (human)/FXIIa alpha (human)” value on thrombin is on record as “+++ (fold selectivity values greater than 100)”.

For the molecule `Cc1ccc(C[C@@H]2C[C@@H](C(=O)NCc3ccc4c(cnn4C)c3)N(C(=O)[C@@H]3NCCC[C@@H]3C(=O)N(C)CCN(C)C)C2)cc1` (single isomer, unassigned) [Example M05902], on FXIIa, the Ki is < 200 nM. At FXa, the “FXa (human)/FXIIa alpha (human)” value is on record as “∘∘∘”. In addition, on thrombin, the “Thrombin (human)/FXIIa alpha (human)” value is “+++ (fold selectivity values greater than 100)”.

Turning to `[2H]C([2H])([2H])n1ncc2cc(CNC(=O)[C@@H]3C[C@@H](Cc4ccc(C)cc4)CN3C(=O)[C@@H]3NCCC[C@@H]3C(=O)N3CCCC3)ccc21` [Example M05820, (2S,4R)-N-((1-(methyl-d3)-1H-indazol-5-yl)methyl)-4-(4-methylbenzyl)-1-((2R,3S)-3-(pyrrolidine-1-carbonyl)piperidine-2-carbonyl)pyrrolidine-2-carboxamide], the Ki at FXIIa is < 200 nM. The “FXa (human)/FXIIa alpha (human)” value on FXa was “∘∘∘”. The “Thrombin (human)/FXIIa alpha (human)” value on thrombin is recorded as “+++ (fold selectivity values greater than 100)”.

`Cn1nnc2cc(CNC(=O)[C@@H]3C[C@@H](Cc4cccc5ccccc45)CN3C(=O)[C@@H]3NCCC[C@@H]3C(=O)N3CCCC3)ccc21` [Example M05877, (2S,4R)-N-((1-methyl-1H-benzo[d][1,2,3]triazol-5-yl)methyl)-4-(naphthalen-1-ylmethyl)-1-((2R,3S)-3-(pyrrolidine-1-carbonyl)piperidine-2-carbonyl)pyrrolidine-2-carboxamide]: the Ki at FXIIa is < 200 nM. In addition, the “FXa (human)/FXIIa alpha (human)” value on FXa is “∘∘∘”. Further, the “Thrombin (human)/FXIIa alpha (human)” value on thrombin is recorded as “+++ (fold selectivity values greater than 100)”.

At FXIIa, `Cc1ccc(C[C@@H]2C[C@@H](C(=O)NCc3ccc4c(cnn4C)c3)N(C(=O)[C@@H]3NCCC[C@@H]3C(=O)N3CCCC3)C2)s1` [Example M06030, (2S,4S)-N-((1-methyl-1H-indazol-5-yl)methyl)-4-((5-methylthiophen-2-yl)methyl)-1-((2R,3S)-3-(pyrrolidine-1-carbonyl)piperidine-2-carbonyl)pyrrolidine-2-carboxamide] came in with a Ki of 200 to 800 nM. Besides, the “FXa (human)/FXIIa alpha (human)” value on FXa is “∘∘∘”. In addition, the “Thrombin (human)/FXIIa alpha (human)” value at thrombin is recorded as “++ (a fold selectivity value of 10 to 100)”.

Molecule `Cn1ncc2cc(CNC(=O)[C@@H]3C[C@@H](Cc4ccc(Cl)cc4)CN3C(=O)[C@@H]3NCCC[C@@H]3C(=O)N3CCCC3)ccc21` [Example M05854, (2S,4R)-4-(4-chlorobenzyl)-N-((1-methyl-1H-indazol-5-yl)methyl)-1-((2R,3S)-3-(pyrrolidine-1-carbonyl)piperidine-2-carbonyl)pyrrolidine-2-carboxamide] yielded a Ki on FXIIa of 200 to 800 nM. Moreover, the “FXa (human)/FXIIa alpha (human)” value at FXa is reported as “∘∘∘”. For the same molecule, on thrombin, the “Thrombin (human)/FXIIa alpha (human)” value is reported as “+++ (fold selectivity values greater than 100)”.

Regarding `Cc1ccc(C[C@@H]2C[C@@H](C(=O)NCc3ccc4c(cnn4C)c3)N(C(=O)[C@@H]3NCCC[C@@H]3C(=O)N(C)CCN3CC(F)(F)C3)C2)cc1` [Example M06129, (2R,3S)-N-(2-(3,3-difluoroazetidin-1-yl)ethyl)-N-methyl-2-((2S,4R)-2-(((1-methyl-1H-indazol-5-yl)methyl)carbamoyl)-4-(4-methylbenzyl)pyrrolidine-1-carbonyl)piperidine-3-carboxamide], the Ki on FXIIa was < 200 nM. Besides, at FXa, the “FXa (human)/FXIIa alpha (human)” value is reported as “∘∘∘”. Besides, the “Thrombin (human)/FXIIa alpha (human)” value at thrombin is reported as “+++ (fold selectivity values greater than 100)”.

Regarding `Cc1ccc(C[C@@H]2C[C@@H](C(=O)NCc3ccc4c(cnn4C)c3)N(C(=O)[C@@H]3NCCC[C@@H]3C(=O)N3CC[C@H](F)C3)C2)cc1` [Example M05777, (2S,4R)-1-((2R,3S)-3-((S)-3-fluoropyrrolidine-1-carbonyl)piperidine-2-carbonyl)-N-((1-methyl-1H-indazol-5-yl)methyl)-4-(4-methylbenzyl)pyrrolidine-2-carboxamide], the Ki on FXIIa fell in the range of 200 to 800 nM. Also, the “FXa (human)/FXIIa alpha (human)” value on FXa is listed as “∘∘∘”. In addition, the “Thrombin (human)/FXIIa alpha (human)” value at thrombin was “+++ (fold selectivity values greater than 100)”.

For `Cc1ccc(C[C@@H]2C[C@@H](C(=O)NCc3ccc4c(cnn4C)c3)N(C(=O)[C@@H]3NCCC[C@@H]3C(=O)N(C)CCCN(C)C)C2)cc1` [Example M06063, (2R,3S)-N-(3-(dimethylamino)propyl)-N-methyl-2-((2S,4R)-2-(((1-methyl-1H-indazol-5-yl)methyl)carbamoyl)-4-(4-methylbenzyl)pyrrolidine-1-carbonyl)piperidine-3-carboxamide], on FXIIa, the Ki was < 200 nM. Moreover, the “FXa (human)/FXIIa alpha (human)” value at FXa is “∘∘∘”. For the same molecule, at thrombin, the “Thrombin (human)/FXIIa alpha (human)” value is “+++ (fold selectivity values greater than 100)”.
